Target: PRC-1 (Pseudomonas wenzhouensis, UniProt Z9ZEF5EQX5)
Assay: nitrocefin hydrolysis inhibition, spectrophotometry
Assay type: biochemical
Conditions: 100 μM nitrocefin, 5 min preincubation, 37°C; covalent

Sequence of PRC-1 (Z9ZEF5EQX5 23-379 limits assumed): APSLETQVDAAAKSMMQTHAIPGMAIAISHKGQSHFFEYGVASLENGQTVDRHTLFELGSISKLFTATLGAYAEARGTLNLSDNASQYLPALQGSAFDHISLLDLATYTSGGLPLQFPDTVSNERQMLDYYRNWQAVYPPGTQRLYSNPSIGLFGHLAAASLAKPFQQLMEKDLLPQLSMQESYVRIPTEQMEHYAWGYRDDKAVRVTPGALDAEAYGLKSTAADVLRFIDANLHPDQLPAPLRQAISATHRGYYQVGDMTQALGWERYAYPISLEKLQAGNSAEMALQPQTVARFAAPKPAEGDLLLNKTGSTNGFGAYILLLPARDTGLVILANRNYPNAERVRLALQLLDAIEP

| SMILES | IC50 [µM] |
| --- | --- |
| O=C(O)[C@H]1/C(=C/CO)O[C@@H]2CC(=O)N21 [clavulanic acid] | 23.4 |
| NC(=O)[C@@H]1CC[C@@H]2CN1C(=O)N2OS(=O)(=O)O [avibactam] | 0.000392 |
